The values that follow come from the NIST ThermoML archive (doi:10.1021/je400246s).

± gives the expanded uncertainty stated by the source.

The conditions of series [1]: Crystal; DTA.
Series [2] in a line: Molar enthalpy of transition or fusion. The following applies: Crystal; DSC.

For the molecule `O=C1c2ccccc2C(=O)c2c(Cl)cccc21` [1-chloroanthraquinone], the Normal melting temperature in series [1] is 162.1 ± 1.1 °C. The “Molar enthalpy of transition or fusion” value in series [2] was determined as 6.99 ± 0.454 kcal/mol.

On to `O=C(O)c1cccc(Cl)c1C(=O)c1ccccc1` [2-benzoyl-3-chlorobenzoic acid], for which, in series [1], the Normal melting temperature is 233.2 ± 1.1 °C. Further, the “Molar enthalpy of transition or fusion” value in series [2] stood at 8.49 ± 0.526 kcal/mol.
